Measured values as given in patent US5444042A, “Method of treatment of neurodegeneration with calpain inhibitors” (Cortex Pharmaceuticals, priority 1994, dated 1995).
Where a SMILES comes first, the peptide text is derived from it. The star is where a group is joined. Boc = CC(C)(C)OC(=O)*; CH2Cl = ClC*

How the values were obtained:
[1] = test system: gerbils subjected to transient ischemia; assay: Transient ischemia in gerbils, neuronal loss in CA1 (Example 3A); assay type: in vivo, gerbil; details: leupeptin 20 mg/ml intracerebroventricular perfusion 3 days before 10 min ischemia; 14 days later
Method: A small cannula was implanted in the right lateral ventricle of adult gerbils, and secured to the skull with dental cement. An Alzet micro-osmotic pump was attached to the cannula for intracerebroventricular perfusion. The pump was filled with either saline alone (control) or leupeptin (20 mg/ml in saline). After three days perfusion with either the control solution or with the leupeptin solution, transient ischemia was induced by bilaterally clamping the carotid arteries for a period of ten minutes. […] Fourteen days later, the animals were sacrificed by Nembutal overdose and transcardial perfusion of a 10% solution of paraformaldehyde in PBS. Coronal sections of the brain were stained with cresyl violet and were examined for the extent of neuronal loss.

[2] = test system: Calpain activity (spectrin BDP's); assay: Transient ischemia in gerbils, spectrin BDP's in CA1 (Example 3B); assay type: in vivo, gerbil; details: CA1 region, 30 minutes after clamping
Method: Implantation surgeries and clamping of the carotid arteries were performed as above with a control-ischemia group (n=4) and a leupeptin-ischemia group (n=5). A third group of animals (n=4) received implantation with pumping of saline, but was not subjected to ischemia. Animals were sacrificed by decapitation 30 minutes after clamping of the arteries. The brains were rapidly removed and placed in cold homogenization buffer (0.32M sucrose, 10 mM Tris-HCl, 2 mM EDTA, 1 mM EGTA, 100 μM leupeptin and 1 μg/ml of the Halo-Ketone Compound, tos-phe-CH2 Cl (TPCK)). The CA1 region of the hippocampus was then dissected. The samples from both control and leupeptin treated animals were then prepared for SDS-PAGE and immunoblotting with labeled anti-spectrin antibody, as described above in connection with in vitro uses of the Calpain Inhibitors. […] These BDP's co-migrated with BDP's observed after in vitro proteolysis of spectrin with Calpain.

hippocampal slices = assay: Hippocampal slice EPSP recovery from severe hypoxia (FIG. 5); assay type: cell-based, rat; details: one hour incubation
Method: These studies were performed in a manner similar to that of Example 7B, except using a hypoxic environment in place of the anoxia of Example 7B. […] The control slices experienced little or no recovery.

Calpain II = assay: Kapp/[I] progress curve method, Calpain II (Table 1C); assay type: biochemical; set-up: unit not given here; details: Rabbit Calpain II, Suc-leu-tyr-amidomethylcoumarin
Method: (§1) The Halo-Ketone Peptides, like the substituted isocoumarins, are irreversible inhibitors of Calpain. We determined the Kapp /[I] values for various members of this class of compounds against Calpains I and II. For comparison, we also determined these values against the additional thiol proteases Papain and Cathepsin B for at least one Halo-Ketone Peptide.
(§2) We assayed Calpain I and II using Suc-leu-tyr-amidomethylcoumarin. Papain was assayed using benzoyl-arg-4-nitroanilide, and Cathepsin B (bovine) was assayed using CBZ-lys-4-nitrophenyl ester. We followed the progress curve method of Tian and Tsou, Biochemistry, 21:1028-1032 (1982), the disclosure of which is hereby incorporated by reference, to derive kinetic data. Briefly, this method makes use of the equation: [formula] where [P.infin. ] represents the concentration of product formed at a time approaching infinity, A is the Kapp in the presence of substrate (S), K is the Michaelis constant and [Y] is the concentration of the inhibitor. Since [S] and [Y] are known and V and K can be determined, Kapp can be readily determined.

Papain = molecular target: T1, Papain (Carica papaya, UniProt P00784); assay: Kapp/[I] progress curve method, Papain (Table 1C); assay type: biochemical; details: benzoyl-arg-4-nitroanilide
T1 sequence (P00784 134-345): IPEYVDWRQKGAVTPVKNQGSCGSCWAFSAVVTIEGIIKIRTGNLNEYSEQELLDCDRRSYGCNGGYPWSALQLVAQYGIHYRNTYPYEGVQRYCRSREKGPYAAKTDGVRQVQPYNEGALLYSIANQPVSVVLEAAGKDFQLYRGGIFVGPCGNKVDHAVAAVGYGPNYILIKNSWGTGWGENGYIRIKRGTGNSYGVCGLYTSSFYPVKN
Method: as §1, §2

Cathepsin B = Cathepsin B (Bos taurus, UniProt P07688); assay: Kapp/[I] progress curve method, Cathepsin B (Table 1C); assay type: biochemical, bovine; details: CBZ-lys-4-nitrophenyl ester
Method: as §1, §2

Calpain I [3] = molecular target: T2, Calpain I (Homo sapiens, UniProt P07384); assay: Calpain I KI (Table 1B(ii)); assay type: biochemical; details: Table 1B(ii)
T2 sequence (P07384 1-714): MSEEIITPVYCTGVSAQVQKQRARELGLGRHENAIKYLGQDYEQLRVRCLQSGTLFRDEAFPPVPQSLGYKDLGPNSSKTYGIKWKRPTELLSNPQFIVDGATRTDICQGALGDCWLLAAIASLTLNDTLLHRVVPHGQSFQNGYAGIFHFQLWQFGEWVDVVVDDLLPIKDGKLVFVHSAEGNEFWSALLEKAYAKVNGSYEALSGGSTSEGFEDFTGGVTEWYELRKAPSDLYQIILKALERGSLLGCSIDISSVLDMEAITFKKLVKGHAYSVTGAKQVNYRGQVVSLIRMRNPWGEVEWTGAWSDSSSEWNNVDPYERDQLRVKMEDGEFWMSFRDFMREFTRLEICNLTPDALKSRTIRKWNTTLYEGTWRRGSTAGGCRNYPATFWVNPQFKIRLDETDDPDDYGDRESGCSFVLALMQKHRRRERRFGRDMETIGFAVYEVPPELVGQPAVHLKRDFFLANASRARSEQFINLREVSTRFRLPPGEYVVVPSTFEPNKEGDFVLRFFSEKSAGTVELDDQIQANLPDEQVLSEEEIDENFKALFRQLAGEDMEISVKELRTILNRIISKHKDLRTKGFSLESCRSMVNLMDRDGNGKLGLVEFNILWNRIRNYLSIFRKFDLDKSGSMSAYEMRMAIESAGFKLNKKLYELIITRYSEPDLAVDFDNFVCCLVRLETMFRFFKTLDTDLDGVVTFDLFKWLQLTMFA
T2 sequence (P04632 1-268 partner): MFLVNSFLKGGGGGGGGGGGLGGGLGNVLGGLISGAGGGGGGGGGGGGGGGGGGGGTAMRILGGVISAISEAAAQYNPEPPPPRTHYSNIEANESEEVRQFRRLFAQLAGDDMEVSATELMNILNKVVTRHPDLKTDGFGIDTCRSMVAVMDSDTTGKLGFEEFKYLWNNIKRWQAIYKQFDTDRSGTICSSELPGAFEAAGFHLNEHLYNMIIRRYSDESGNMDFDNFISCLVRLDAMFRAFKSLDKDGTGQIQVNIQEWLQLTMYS
Description: We tested the ability of an additional group of Peptide Keto-Compounds to inhibit several proteases in order to evaluate their specificity for Calpain.

Calpain I [4] = molecular target: T2, Calpain I; assay: Calpain I 14C-methylated casein proteolysis (Table 1A); assay type: biochemical

`CC(=O)N[C@@H](CC(C)C)C(=O)N[C@@H](CC(C)C)C(=O)N[C@H](C=O)CCCNC(=N)N` [Leupeptin, Ac-Leu-Leu-Arg-H, reference compound] was tested. Which “loss of neurons in CA1 field” value [1] did it give?
The value was 15%.

What about the “spectrin BDP's relative to control ischemia treated gerbils” value [2] of the same molecule?
The value was “approximately 25%”.

Which “percent recovery of EPSP from severe hypoxia (FIG. 5)” value (hippocampal slices) does the source give for `CCOC(=O)C(=O)C(Cc1ccccc1)NC(=O)C(CC(C)C)NC(=O)OCc1ccccc1` (stereo not drawn) [Z-Leu-Phe-COOEt] here?
Its value is “partial recovery”.

For `CC(C)CC(NC(=O)CNC(=O)OC(C)(C)C)C(=O)NC(Cc1ccccc1)C(=O)CCl` (stereo not drawn) [Boc-Gly-Leu-Phe-CH2 Cl] (Boc-Gly-Leu-Phe-CH2Cl; configuration not given here), which “Kapp/[I] CII” value (Calpain II) is on record?
The value was 902000.

And the “Kapp/[I] P” value (Papain)?
Its value is 540000.

And the “Kapp/[I] CB” value (Cathepsin B)?
The value was 290000.

How did the Ki (Calpain I [3]) turn out when `CCCC(NC(=O)[C@H](CC(C)C)NC(=O)OCc1ccccc1)C(=O)C(=O)OCC` (mixture of isomers) [Z-Leu-Nva-COOEt, Z-Leu-DL-Nva-COOEt] was run?
The Ki was 1.4 µM.

With `N=C(N)SCCCOc1oc(=O)c2ccccc2c1Cl` [CiTprOIC, 4-chloro-3-(3-isothiureidopropoxy)isocoumarin] as the molecule, how does the IC50 (Calpain I [4]) read?
The IC50 was 100 µM.

Which IC50 (Calpain I [4]) does the source give for `N=C(N)SCCCOc1oc(=O)c2cc(N)ccc2c1Cl` [NH2 -CiTPrOIC (ACITIC), 7-amino-4-chloro-3-(3-isothiureidopropoxy)isocoumarin] here?
The IC50 was 10 µM.
